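Tested at 5 concentrations; 48 h exposure; 96-well plates; endpoints linearly interpolated, else capped at highest concentration. GI50 marks 50% less growth. The concentration for full growth arrest is given as TGI.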
Assays:
Test in all cases: NCI-60 cell line screen, 48 h
SK-MEL-5 melanoma = system: SK-MEL-5 melanoma
KM12 colon = system: KM12 colon
SW-620 colon = system: SW-620 colon
SF-268 CNS = system: SF-268 CNS
SN12C renal = system: SN12C renal
UACC-257 melanoma = system: UACC-257 melanoma
CCRF-CEM leukemia = system: CCRF-CEM leukemia
UACC-62 melanoma = system: UACC-62 melanoma
COLO 205 colon = system: COLO 205 colon
M14 melanoma = system: M14 melanoma

## O=C1C2C(C(=O)N1c1ccccc1)C1c3ccccc3C2C2C(=O)N(c3ccccc3)C(=O)C21 (centres undefined)
SK-MEL-5 melanoma
  TGI: > 100 µM
KM12 colon
  TGI: > 100 µM
SW-620 colon
  TGI: > 100 µM
SF-268 CNS
  TGI: > 100 µM
SN12C renal
  TGI: > 100 µM
UACC-257 melanoma
  TGI: > 100 µM
CCRF-CEM leukemia
  TGI: > 100 µM
UACC-62 melanoma
  TGI: > 100 µM
COLO 205 colon
  TGI: > 100 µM
M14 melanoma
  TGI: > 100 µM

## CC(C)C1CO[C@]2(C)CCC(=O)N12 (some centres undefined)
SK-MEL-5 melanoma
  TGI: > 100 µM
KM12 colon
  TGI: > 100 µM
SW-620 colon
  TGI: > 100 µM
SF-268 CNS
  TGI: > 100 µM
SN12C renal
  TGI: > 100 µM
UACC-257 melanoma
  TGI: > 100 µM
CCRF-CEM leukemia
  TGI: > 100 µM
UACC-62 melanoma
  TGI: > 100 µM
COLO 205 colon
  TGI: > 100 µM
M14 melanoma
  TGI: > 100 µM

## COc1ccccc1N=Nc1c(-c2ccccc2)nn(C(=O)CC(=O)Nc2cccc(C)c2)c1-c1ccccc1
SK-MEL-5 melanoma
  TGI: 97.8 µM
KM12 colon
  TGI: > 100 µM
SW-620 colon
  TGI: > 100 µM
SF-268 CNS
  TGI: > 100 µM
SN12C renal
  TGI: > 100 µM
UACC-257 melanoma
  TGI: > 100 µM
CCRF-CEM leukemia
  TGI: > 100 µM
UACC-62 melanoma
  TGI: > 100 µM
COLO 205 colon
  TGI: > 100 µM
M14 melanoma
  TGI: > 100 µM

## c1ccc(-c2nn3c(c2-c2ccnc4cc(OCCN5CCOCC5)ccc24)CCC3)nc1
SK-MEL-5 melanoma
  GI50: 43.9 µM
  TGI: > 100 µM
KM12 colon
  GI50: 59.4 µM
  TGI: > 100 µM
SW-620 colon
  GI50: 73.2 µM
  TGI: > 100 µM
SF-268 CNS
  GI50: > 77.1 µM
  TGI: > 100 µM
SN12C renal
  GI50: 50.4 µM
  TGI: > 100 µM
UACC-257 melanoma
  GI50: > 100 µM
  TGI: > 100 µM
CCRF-CEM leukemia
  GI50: > 95.9 µM
  TGI: > 100 µM
UACC-62 melanoma
  GI50: > 100 µM
  TGI: > 100 µM
COLO 205 colon
  GI50: 41.6 µM
  TGI: > 100 µM
M14 melanoma
  GI50: 70.8 µM
  TGI: > 100 µM

## COc1ccc2c(c1)nc(NNC(=O)c1cnccn1)c1cccn12
SK-MEL-5 melanoma
  GI50: 0.27 µM
  TGI: 1.22 µM
KM12 colon
  GI50: 0.245 µM
  TGI: 9.64 µM
SW-620 colon
  GI50: 0.403 µM
  TGI: 9.43 µM
SF-268 CNS
  GI50: 0.138 µM
  TGI: 6.67 µM
SN12C renal
  GI50: 0.408 µM
  TGI: 3.37 µM
UACC-257 melanoma
  GI50: 0.756 µM
  TGI: 4.42 µM
CCRF-CEM leukemia
  GI50: 0.0678 µM
  TGI: > 44.1 µM
UACC-62 melanoma
  GI50: 0.268 µM
  TGI: 2.99 µM
COLO 205 colon
  GI50: 0.264 µM
  TGI: 3.01 µM
M14 melanoma
  GI50: 0.275 µM
  TGI: 3.78 µM

## CN(C)C(=O)Nc1nc2cc(Cl)c(Cl)cc2[nH]1
SK-MEL-5 melanoma
  GI50: 0.441 µM
  TGI: > 100 µM
KM12 colon
  GI50: 0.404 µM
  TGI: > 35.7 µM
SW-620 colon
  GI50: 0.476 µM
  TGI: > 100 µM
SF-268 CNS
  GI50: 2.89 µM
  TGI: > 100 µM
SN12C renal
  GI50: 1.36 µM
  TGI: > 100 µM
UACC-257 melanoma
  GI50: > 100 µM
  TGI: > 100 µM
CCRF-CEM leukemia
  GI50: 0.953 µM
  TGI: > 100 µM
UACC-62 melanoma
  GI50: 0.382 µM
  TGI: > 100 µM
COLO 205 colon
  GI50: 0.661 µM
  TGI: 5.08 µM
M14 melanoma
  GI50: 0.603 µM

From PubChem BioAssay (NCI)
